Laboratory results reported in ChEMBL document CHEMBL1147454, “6-Arylamino-7-chloro-quinazoline-5,8-diones as novel cytotoxic and DNA topoisomerase inhibitory agents” (Bioorg Med Chem Lett, 2004).

How the values were obtained:
[1] = biological target: T1, DNA topoisomerase 1 (Homo sapiens) (UniProt P11387); test: In vitro inhibition of human DNA topoisomerase I activity.; parameters: concentration or dose not given beside the values; conditions: concentration not given here
T1 sequence (whole entry): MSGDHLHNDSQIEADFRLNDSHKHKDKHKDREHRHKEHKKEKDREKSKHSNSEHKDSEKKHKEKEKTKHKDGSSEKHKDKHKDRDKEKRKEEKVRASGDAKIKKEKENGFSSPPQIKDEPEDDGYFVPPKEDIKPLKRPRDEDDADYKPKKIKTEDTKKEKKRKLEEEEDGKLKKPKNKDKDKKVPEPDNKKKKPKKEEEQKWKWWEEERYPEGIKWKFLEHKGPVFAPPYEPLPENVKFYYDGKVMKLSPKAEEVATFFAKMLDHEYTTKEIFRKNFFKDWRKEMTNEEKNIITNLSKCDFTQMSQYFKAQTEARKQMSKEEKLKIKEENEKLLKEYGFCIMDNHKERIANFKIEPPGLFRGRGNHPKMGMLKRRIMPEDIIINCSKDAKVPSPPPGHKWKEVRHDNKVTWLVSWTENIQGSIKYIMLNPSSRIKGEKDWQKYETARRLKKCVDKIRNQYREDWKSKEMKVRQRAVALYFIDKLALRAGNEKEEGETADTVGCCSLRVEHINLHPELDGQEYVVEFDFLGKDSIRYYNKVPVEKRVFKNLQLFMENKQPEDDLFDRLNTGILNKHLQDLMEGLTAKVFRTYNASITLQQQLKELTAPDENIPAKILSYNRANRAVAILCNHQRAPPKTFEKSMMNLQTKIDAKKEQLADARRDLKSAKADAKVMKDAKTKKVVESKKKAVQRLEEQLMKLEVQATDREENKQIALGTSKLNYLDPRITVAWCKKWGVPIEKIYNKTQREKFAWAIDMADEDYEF

[2] = biological target: T2, DNA topoisomerase II (Homo sapiens, UniProt P11388+Q02880); test: In vitro inhibition of human DNA topoisomerase II activity.; type: protein assay; conditions: concentration not given here
[3] = system: A549; test: In vitro cytotoxicity against human A549 (lung cancer) cell line.; type: functional, cell-based
[4] = system: SNU-638; test: In vitro cytotoxicity against human SNU-638 (stomach cancer) cell line.; type: functional, cell-based
[5] = system: Col2; test: In vitro cytotoxicity against human Col2 (colon cancer) cell line.; type: functional, cell-based
[6] = biological target: T2, DNA topoisomerase II; test: Inhibitory activity against topo II-mediated decatenation of DNA; type: protein assay
[7] = biological target: T2, DNA topoisomerase II; test: Inhibitory activity against DNA topoisomerase II; type: protein assay

inhibition [1] [%]	inhibition [2] [%]	IC50 [6] [nM]	IC50 [7] [nM]	Structure (SMILES)	IC50 [3] [nM]	IC50 [4] [nM]	IC50 [5] [nM]
35	20	–	–	COc1ccc(/N=C2/C(=O)c3cncnc3C(O)=C2Cl)c(OC)c1	2020	610	1070
96	2	–	–	Cc1cccc(NC2=C(Cl)C(=O)c3ncncc3C2=O)c1	5170	970	5670
12	2	–	–	O=C1C(Nc2cccc(Cl)c2)=C(Cl)C(=O)c2ncncc21	4220	810	3550
–	–	–	–	COc1cccc2c1C(=O)c1c(O)c3c(c(O)c1C2=O)C[C@@](O)(C(=O)CO)C[C@@H]3O[C@H]1C[C@H](N)[C@H](O)[C@H](C)O1 [DOXORUBICIN]	300	690	520
9	2	–	–	O=C1C(Nc2cccc(Br)c2)=C(Cl)C(=O)c2ncncc21	3680	1180	5070
88	4	–	–	CCc1ccc(NC2=C(Cl)C(=O)c3ncncc3C2=O)cc1	3440	640	700
9	1	–	–	CCOc1ccccc1/N=C1/C(=O)c2cncnc2C(O)=C1Cl	3280	690	730
29	6	–	–	Cc1ccccc1/N=C1/C(=O)c2cncnc2C(O)=C1Cl	3600	900	3770
89	99	17300	–	O=C1C(Nc2ccccc2Br)=C(Cl)C(=O)c2ncncc21	4470	990	3400
100	20	–	–	Cc1ccc(NC2=C(Cl)C(=O)c3ncncc3C2=O)cc1C	4490	990	3730
27	41	–	–	O=C1C(Nc2ccccc2)=C(Cl)C(=O)c2ncncc21	3540	770	1190
–	–	–	–	Cc1c2ccncc2c(C)c2c1[nH]c1ccccc12 [ELLIPTECINE]	1220	2000	1220
–	48	–	–	COc1cc([C@@H]2c3cc4c(cc3[C@@H](O[C@@H]3O[C@@H]5CO[C@@H](C)O[C@H]5[C@H](O)[C@H]3O)[C@H]3COC(=O)[C@H]23)OCO4)cc(OC)c1O	–	–	–
20	82	–	–	CCc1ccccc1/N=C1/C(=O)c2cncnc2C(O)=C1Cl	4650	700	4370
100	100	–	40500	Cc1ccc(/N=C2/C(=O)c3cncnc3C(O)=C2Cl)c(Br)c1	4070	890	3040
58	94	15100	–	O=C1C(Nc2ccc(Br)cc2)=C(Cl)C(=O)c2ncncc21	4310	690	3020
27	2	–	–	O=C1C(Nc2ccc3c(c2)OCO3)=C(Cl)C(=O)c2ncncc21	1670	550	880
12	1	–	–	Cc1ccc(NC2=C(Cl)C(=O)c3ncncc3C2=O)cc1	5810	730	870
